This note sets out measurements from patent EP4549446A1 (priority 2023, dated 2025).

One data set deals with Nrf2. Briefly: Nrf2-ARE induction, luciferase assay in AREc32 cells. The format is cell-based. The following applies: CD: concentration required to double the specific activity of the luciferase gene, 24 h treatment.
Data set [1] in a line: SFNA/αCD association constant by 1H NMR titration in D2O. The format is physicochemical. The following applies: 298 K, SFNA 2 mM against increasing α-cyclodextrin. As to the method: The preparation of inclusion complexes was carried out by a physical mixture in water between α-cyclodextrin (host) and the sulforaphane analogue (guest; SFNA). The confirmation of complex formation, its stoichiometry, association constant (Kas), and degree of degradation were determined using ^1H NMR spectroscopy.
Determination of the SFNA/αCD association constant. The determination of association constants (Kas, M^-1) for the SFNA/αCD complex was performed through ^1H NMR titration experiments in D2O. The association constants at 298 K were experimentally determined by measuring the changes in chemical shift (Δδ, ppm) of the ^1H NMR signals using fixed solutions of the analogues against increasing concentrations of α-cyclodextrin. In a typical titration experiment, a 2 mM solution of the SFN analogue in D2O was prepared, and a 500 µL aliquot was transferred to the NMR tube, and the initial spectrum was recorded. Furthermore, a solution of a mixture (SFNA at 2 mM/ αCD at 16.11 mM) was prepared and added in 10 µL aliquots to the NMR tube, keeping the analogue concentration constant. The added amounts of α-cyclodextrin were increased until complete complexation of the analogue, and ^1H NMR spectra were recorded after each addition. The mathematical treatment of the curves of chemical shift variations of the analogue proton signals (Δδ) against increasing α-cyclodextrin concentrations using an iterative least-squares fitting procedure allowed for the determination of the Kas values for the analogues (Table 1).

Another data set deals with AML cell lines. The format is cell-based, human.
Data set [2] has as its system normal cell subpopulations from healthy donors. The data set can be described thus: Ex vivo cell viability by flow cytometry on normal cells. The format is cell-based, human. The following applies: normal cell subpopulations from healthy donors including hematopoietic precursor cells, 18 h. As to the method:
Primary human cells from healthy donors were used in ex vivo assays. The mononuclear fraction was extracted with Ficoll-Paque by density gradient centrifugation and subsequently differentiated from the other cell populations by flow cytometry using an appropriate combination of antibodies: anti-human CD45-Pacific Blue, CD34-FITC, CD19-APC-H7 (BD Biosciences, San Jose, CA) and CD3-FITC (Invitrogen).
Cell viability and cell lysis were also assessed by annexin V/7-AAD using flow cytometry. Donor cells were analysed using 7-AAD a combination of monoclonal antibodies (anti-CD45-Pacific Blue, anti-CD34-FITC, anti-CD3-FITC, anti-CD19-APC-H7). The cells were acquired with the FACSCanto II flow cytometer (BD Biosciences) and analysed with the Infinicyt™ software (Cytognos, Spain).
For orientation: Flow cytometry measures light scatter and fluorescence of single cells or particles in a stream.

On to `C[S+]([O-])CCCCN=C=S` (stereo not shown) [SFN-1, sulforaphane, reference compound], for which the EC (2-fold) in the data set with Nrf2 (read-out: CD ± SEM) amounted to 0.44 ± 0.28 µM.
For `CCOP(=O)(OCC)OCCCN=C=S` [SFN-10, Diethyl (3-isothiocyanatopropyl) phosphate], the Kas in data set [1] is 34,87 M^-1. Besides, the “proapoptotic effect on AML cell lines” value in the data set on AML cell lines is listed as “partially selective proapoptotic effect”. Besides, the “CD ± SEM” value with Nrf2 worked out at 0.56 ± 0.07 µM. Further, the “viability of normal healthy cells” value in data set [2] is listed as “not affected”.
Take `CCOP(=O)(CCCCN=C=S)OCC` [SFN-14, Diethyl (4-isothiocyanatobutyl)phosphonate]: in data set [1], the Kas was 135,95 M^-1. Further, the “proapoptotic effect on AML cell lines” value in the data set with AML cell lines is recorded as “partially selective proapoptotic effect”.
On to `CC(C)OP(=O)(OCCCN=C=S)OC(C)C` [SFN-15, Diisopropyl (3-isothiocyanatopropyl) phosphate], for which the Kas in data set [1] is 101,95 M^-1. Besides, the “CD ± SEM” value with Nrf2 was determined as 0.52 ± 0.08 µM.
Regarding `O=P(OCCCN=C=S)(Oc1ccccc1)Oc1ccccc1` [SFN-16, Diphenyl 3-isothiocyanatopropyl phosphate], the “CD ± SEM” value in the data set with Nrf2 came out at 1.55 ± 0.45 µM.
